Measurements: publication PMC5378956, “Inhibition of delta-secretase improves cognitive functions in mouse models of Alzheimer's disease” (Nature Communications, 2017)
Where two headings read alike, the source gives them in different places. Values belong to the compound of their own block, whether it stands above or below them.

Legend:
[1] = biological target: cathepsin-L (Homo sapiens, UniProt P07711); assay: IC50 assay with cathepsin-L; assay type: biochemical; settings: for IC50: mean±s.d.
Experimental: Cathepsin-L – 100 nM enzyme was pre-incubated with inhibitor in assay buffer (100 mM Sodium Acetate pH 5.5, 1 mM EDTA) for 10 min at 37 °C. The reaction was initiated on addition of 25 μM substrate (D-Val-Leu-Lys-AMC (Bachem).
(§1) To determine the IC50 values of the compounds towards δ-secretase, cathepsin-S, cathepsin-L, caspase-3 and caspase-8, purified recombinant enzyme was incubated in appropriate assay buffers in the presence of increasing concentrations of inhibitors. The formation of fluorescent product was monitored in duplicate reactions and the data were fit to appropriate equations to calculate the IC50 values.

[2] = biological target: T1, δ-secretase (Homo sapiens, UniProt Q99538); assay: DTT and L-cysteine reversibility of δ-secretase inhibition; assay type: biochemical; settings: 10 mM DTT or L-cysteine, inhibitor at its IC50
T1 construct: tested with purified active δ-secretase, IC50 values for the top 8 candidates were calculated; purchased Sino Biological (Beijing, China)
T1 sequence (Q99538 18-323 limits assumed): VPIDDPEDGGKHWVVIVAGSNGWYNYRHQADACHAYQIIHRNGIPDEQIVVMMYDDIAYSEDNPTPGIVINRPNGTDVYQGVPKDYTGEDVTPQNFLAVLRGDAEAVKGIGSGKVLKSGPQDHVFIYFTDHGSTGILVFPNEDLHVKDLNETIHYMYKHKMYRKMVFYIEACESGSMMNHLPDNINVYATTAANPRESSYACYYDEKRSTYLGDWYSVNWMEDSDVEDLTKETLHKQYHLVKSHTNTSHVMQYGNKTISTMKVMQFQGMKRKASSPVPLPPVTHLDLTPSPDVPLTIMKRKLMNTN

[3] = biological target: T2, δ-secretase in Pala cells (Homo sapiens, UniProt Q99538); assay: δ-secretase inhibition in intact Pala cells; settings: for IC50 towards δ-secretase in Pala cells: intact cells, 2 h incubation, mean±s.d.
T2 sequence (Q99538 18-433): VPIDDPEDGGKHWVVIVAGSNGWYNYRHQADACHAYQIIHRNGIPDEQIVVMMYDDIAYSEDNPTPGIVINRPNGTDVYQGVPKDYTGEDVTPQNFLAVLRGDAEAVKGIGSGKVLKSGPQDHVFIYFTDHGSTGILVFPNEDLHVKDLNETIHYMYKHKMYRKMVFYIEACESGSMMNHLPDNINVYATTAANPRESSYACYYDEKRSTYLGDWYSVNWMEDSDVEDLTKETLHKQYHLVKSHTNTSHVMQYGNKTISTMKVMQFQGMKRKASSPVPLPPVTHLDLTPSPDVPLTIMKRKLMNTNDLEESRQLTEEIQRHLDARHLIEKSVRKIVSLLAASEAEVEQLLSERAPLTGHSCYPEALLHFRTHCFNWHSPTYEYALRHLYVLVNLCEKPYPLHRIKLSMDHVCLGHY

[4] = biological target: T3, cathepsin-S (Homo sapiens, UniProt P25774); assay: IC50 assay with recombinant cathepsin-S; assay type: biochemical; settings: for IC50: mean±s.d.
T3 construct: purchased Athens Research and Technology (Athens, GA)
Experimental: Cathepsin-S – 100 nM enzyme was pre-incubated with inhibitor in assay buffer (100 mM NaH2PO4 pH 6.5, 100 mM NaCl) for 10 min at 37 °C. The reaction was initiated on addition of 25 μM substrate (Boc-Val-Leu-Lys-AMC (Bachem).
as §1

[5] = biological target: T4, caspase-8 (Homo sapiens, UniProt Q14790); assay: IC50 assay with recombinant caspase-8; assay type: biochemical; settings: for IC50: mean±s.d.
T4 construct: purchased Millipore (Billerica, MA)
Experimental: (§2) Caspase-3 and 8 – The enzyme was pre-incubated with inhibitor in assay buffer (100 mM HEPES pH 7.4, 0.1% CHAPS, 10% Sucrose) for 10 min at 37 °C.
as §1

[6] = biological target: T1, δ-secretase; assay: IC50 assay with purified recombinant δ-secretase (AEP), substrate Cbz-Ala-Ala-Asn-AMC; assay type: biochemical
Experimental: δ-secretase – 50 nM enzyme was pre-incubated with inhibitor in assay buffer (50 mM Sodium Citrate pH 5.5, 0.1% CHAPS, 60 mM Na2HPO4, 1 mM EDTA) for 10 min at 37 °C. The reaction was initiated on addition of 10 μM Cbz-Ala-Ala-Asn-AMC (Bachem).
as §1

[7] = biological target: T5, caspase-3 (Homo sapiens, UniProt P42574); assay: IC50 assay with recombinant caspase-3; assay type: biochemical; settings: for IC50: mean±s.d.
T5 construct: purchased Millipore (Billerica, MA)
T5 sequence (P42574 29-175 limits assumed): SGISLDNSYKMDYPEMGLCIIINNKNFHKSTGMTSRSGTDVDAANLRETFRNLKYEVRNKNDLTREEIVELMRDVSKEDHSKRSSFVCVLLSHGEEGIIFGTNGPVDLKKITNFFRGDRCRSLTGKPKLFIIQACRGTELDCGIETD
T5 sequence (P42574 176-277 limits assumed): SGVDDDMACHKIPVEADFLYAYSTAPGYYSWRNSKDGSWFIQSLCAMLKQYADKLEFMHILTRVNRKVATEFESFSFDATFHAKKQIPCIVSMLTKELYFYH
Experimental: as §2, §1

[8] = system: Caco-2 monolayer; assay: Caco-2 monolayer permeability screen; settings: 10 µM, 2 h
Experimental: (§3) Supplementary Table 3: Caco-2 permeability and BBB-PAMPA permeability
(§4) For CaCo-2 permeability assay, cells were incubated with 10 µM of these reagents in
(§5) buffers for 2 h, and the receiver side buffer is removed for analysis by LC/MS/MS. Efflux […]
(§6) LLOQ: Lower Limit of Quantification; Papp: apparent permeability.

[9] = biological target: CYP2C19 (Homo sapiens, UniProt P33261); assay: CYP inhibition screening in microsomes; settings: pH 7.4
[10] = biological target: CYP2D6 (Homo sapiens, UniProt P10635); assay: CYP inhibition screening in microsomes; settings: pH 7.4
[11] = biological target: T6, CYP1A2 (Homo sapiens, UniProt P05177); assay: CYP inhibition screening in microsomes; settings: pH 7.4
T6 sequence (P05177 1-516): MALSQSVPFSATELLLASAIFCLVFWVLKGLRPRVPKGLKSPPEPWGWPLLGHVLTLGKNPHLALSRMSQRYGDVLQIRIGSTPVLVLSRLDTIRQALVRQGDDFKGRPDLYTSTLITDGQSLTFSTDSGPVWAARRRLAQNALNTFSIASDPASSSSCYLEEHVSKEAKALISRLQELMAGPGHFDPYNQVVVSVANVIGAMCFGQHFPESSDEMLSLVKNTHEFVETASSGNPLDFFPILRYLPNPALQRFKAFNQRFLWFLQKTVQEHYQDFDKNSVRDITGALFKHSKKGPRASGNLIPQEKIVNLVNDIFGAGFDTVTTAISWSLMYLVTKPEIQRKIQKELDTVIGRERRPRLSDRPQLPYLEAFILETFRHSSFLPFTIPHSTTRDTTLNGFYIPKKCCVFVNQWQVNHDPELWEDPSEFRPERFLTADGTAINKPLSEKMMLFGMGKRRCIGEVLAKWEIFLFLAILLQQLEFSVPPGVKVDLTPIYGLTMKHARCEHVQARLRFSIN

[12] = system: CYP3A; assay: CYP inhibition screening in microsomes; settings: human, pH 7.4, probe testosterone
[13] = biological target: CYP2C9 (Homo sapiens, UniProt P11712); assay: CYP inhibition screening in microsomes; settings: pH 7.4
[14] = biological target: CYP3A4 (Homo sapiens, UniProt P08684); assay: CYP inhibition screening in microsomes; settings: pH 7.4, probe midazolam
[15] = system: HepG2 cells; assay: COMET assay and micronucleus assay in HepG2 cells; assay type: cell-based, human; settings: 50 μM, 24 h
Experimental: Human hepatocellular carcinoma HepG2 cells were used to determine the genotoxicity of the compounds. The Comet Assay (single cell gel electrophoresis) was performed according to the protocol provided in the Trevigen Kit (4250-050-K). Briefly, cells were pre-treated for 24 h with vehicle control or 50 μM compounds. Cells were harvested, embedded in low-melt agarose and submerged in Lysis Buffer for 45 min at 4 °C. After incubation in Alkaline Unwinding Solution (300 mM NaOH, 1 mM EDTA) for 20 min, the cells were subjected to electrophoresis in Alkaline Unwinding Solution at 300 mA for 30 min. Slides were washed with 70% ethanol, dried and stained with SYBR Green for 30 min at room temperature. Nicked DNA was measured as percentage of tail DNA. One hundred comets were scored for each sample[39].
HepG2 cells were treated with vehicle or 50 μM compound for 24 h. Cells were washed with PBS, followed byincubation at a ratio of 1:19 in a hypotonic solution (75 mM KCl/0.9% NaCl) for 10 min at 37 °C. Next, the cells were fixed with methanol:glacial acetic acid (3:1) for 15 min at 37 °C, then rinsed and dried. Cells were stained with DAPI (2 μg ml^−1) for 30 min in the dark at room temperature, rinsed with water, dried and mounted with glycerol. One thousand cells per dish were analysed for each experiment; three independent experiments were performed.

[16] = Caco-2 monolayer permeability screen; settings: human, Caco-2
Experimental: as §3, §4, §5, §6

[17] = system: primary neurons; assay: LDH release of primary neurons after OGD; assay type: cell-based, mouse; settings: wild-type neurons
[18] = biological target: δ-secretase (Mus musculus, UniProt O89017); assay: Cleavage of GST-tau and GFP-APP by kidney lysates, Western blot; settings: kidney lysates with GST-tau or GFP-APP
[19] = biological target: T7, GAPDH (Mus musculus, UniProt P16858); assay: GAPDH activity assay in primary neurons; assay type: cell-based
T7 construct: GAPDH activity in primary neurons; endogenous in cells; host or cells: primary neurons (mouse cortical)
Experimental: GAPDH activity was assessed using the GAPDH Activity Assay Kit (Biovision) according to the manufacture's instructions.

[20] = Liver microsomal stability, human; settings: human, microsomes, 0.5 h, pH 7.4
Experimental: (§7) Supplementary Table 4: Liver microsomal stability
(§8) Compound Species Mean Remaining Parent Mean Remaining Parent
(§9) (with NADPH) (NADPH-free)
(§10) The test agents were incubated in duplicate with microsomes at 37 °C for 30 min. The reaction contained microsomal protein in 100 mM potassium phosphate, 2 mM NADPH, 3 mM MgCl2, pH 7.4. A control was run for each test agent omitting NADPH to detect NADPH-free degradation. Data are reported as % remaining of parent compound. ND, Peak not detected due to bioanalysis issue (poor ionization).

[21] = Liver microsomal stability, mouse; settings: mouse, microsomes, 0.5 h, pH 7.4
Experimental: as §7, §8, §9, §10

[22] = purified recombinant enzyme, mean±s.d., read-out: IC50 AEP (δ-secretase)

T3 sequence (P25774 115-331, species assumed): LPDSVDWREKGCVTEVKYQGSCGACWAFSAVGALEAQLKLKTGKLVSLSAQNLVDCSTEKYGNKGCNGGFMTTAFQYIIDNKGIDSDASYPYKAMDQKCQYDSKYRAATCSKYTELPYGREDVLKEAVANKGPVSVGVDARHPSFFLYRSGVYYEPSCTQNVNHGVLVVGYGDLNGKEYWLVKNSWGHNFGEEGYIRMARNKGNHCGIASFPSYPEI
Sequence of cathepsin-L (P07711 114-333, species assumed): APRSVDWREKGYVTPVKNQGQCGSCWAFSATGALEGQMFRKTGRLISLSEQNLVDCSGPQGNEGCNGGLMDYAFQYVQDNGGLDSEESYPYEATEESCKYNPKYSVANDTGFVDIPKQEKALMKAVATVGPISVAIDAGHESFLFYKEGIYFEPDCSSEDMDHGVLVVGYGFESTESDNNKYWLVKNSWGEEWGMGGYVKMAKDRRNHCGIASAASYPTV
T4 sequence (Q14790 217-374 limits assumed, species assumed): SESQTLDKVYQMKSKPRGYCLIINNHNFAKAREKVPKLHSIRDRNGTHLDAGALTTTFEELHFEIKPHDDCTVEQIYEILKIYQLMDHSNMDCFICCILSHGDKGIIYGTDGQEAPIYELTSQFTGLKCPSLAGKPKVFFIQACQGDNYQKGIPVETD
T4 sequence (Q14790 385-479 limits assumed, species assumed): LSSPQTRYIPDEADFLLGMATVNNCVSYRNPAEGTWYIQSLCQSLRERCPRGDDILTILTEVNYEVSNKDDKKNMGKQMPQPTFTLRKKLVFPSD
T7 sequence (P16858 whole entry): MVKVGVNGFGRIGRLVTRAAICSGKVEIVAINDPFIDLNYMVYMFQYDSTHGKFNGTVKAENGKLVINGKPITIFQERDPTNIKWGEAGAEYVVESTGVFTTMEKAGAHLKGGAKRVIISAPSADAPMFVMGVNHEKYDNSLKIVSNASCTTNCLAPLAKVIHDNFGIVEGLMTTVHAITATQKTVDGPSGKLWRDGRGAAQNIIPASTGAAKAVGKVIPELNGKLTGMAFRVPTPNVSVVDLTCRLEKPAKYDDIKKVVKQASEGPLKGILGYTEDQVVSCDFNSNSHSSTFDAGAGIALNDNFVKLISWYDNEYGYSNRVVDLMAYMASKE
Sequence of CYP2C9 (P11712 whole entry): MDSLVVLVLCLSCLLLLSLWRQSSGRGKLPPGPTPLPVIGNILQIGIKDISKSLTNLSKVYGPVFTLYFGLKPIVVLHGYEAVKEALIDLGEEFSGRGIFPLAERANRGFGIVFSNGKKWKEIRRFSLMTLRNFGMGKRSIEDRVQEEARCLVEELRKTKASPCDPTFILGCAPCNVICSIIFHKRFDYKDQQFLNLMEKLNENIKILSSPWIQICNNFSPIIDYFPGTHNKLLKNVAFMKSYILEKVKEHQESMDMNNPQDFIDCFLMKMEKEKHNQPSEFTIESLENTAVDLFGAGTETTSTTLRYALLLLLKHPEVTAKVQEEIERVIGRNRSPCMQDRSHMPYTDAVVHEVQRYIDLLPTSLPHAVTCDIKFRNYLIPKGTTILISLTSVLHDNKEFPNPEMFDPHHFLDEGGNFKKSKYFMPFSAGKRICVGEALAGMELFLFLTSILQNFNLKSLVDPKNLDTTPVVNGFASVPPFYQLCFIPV
Sequence of CYP3A4 (P08684 whole entry): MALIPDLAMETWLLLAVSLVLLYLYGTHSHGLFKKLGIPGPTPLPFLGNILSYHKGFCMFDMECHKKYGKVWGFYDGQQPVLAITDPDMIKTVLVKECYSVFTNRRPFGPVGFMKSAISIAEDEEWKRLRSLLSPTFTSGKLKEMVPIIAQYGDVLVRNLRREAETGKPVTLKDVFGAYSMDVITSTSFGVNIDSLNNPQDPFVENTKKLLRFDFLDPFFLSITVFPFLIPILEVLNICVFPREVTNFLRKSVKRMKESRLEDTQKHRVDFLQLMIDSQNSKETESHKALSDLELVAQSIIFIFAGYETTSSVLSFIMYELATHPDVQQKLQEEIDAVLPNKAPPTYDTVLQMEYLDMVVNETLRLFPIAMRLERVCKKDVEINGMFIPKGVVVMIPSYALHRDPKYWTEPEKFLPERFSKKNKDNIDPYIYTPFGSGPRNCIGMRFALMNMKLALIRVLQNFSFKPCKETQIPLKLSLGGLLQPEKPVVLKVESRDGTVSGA
Sequence of CYP2C19 (P33261 whole entry): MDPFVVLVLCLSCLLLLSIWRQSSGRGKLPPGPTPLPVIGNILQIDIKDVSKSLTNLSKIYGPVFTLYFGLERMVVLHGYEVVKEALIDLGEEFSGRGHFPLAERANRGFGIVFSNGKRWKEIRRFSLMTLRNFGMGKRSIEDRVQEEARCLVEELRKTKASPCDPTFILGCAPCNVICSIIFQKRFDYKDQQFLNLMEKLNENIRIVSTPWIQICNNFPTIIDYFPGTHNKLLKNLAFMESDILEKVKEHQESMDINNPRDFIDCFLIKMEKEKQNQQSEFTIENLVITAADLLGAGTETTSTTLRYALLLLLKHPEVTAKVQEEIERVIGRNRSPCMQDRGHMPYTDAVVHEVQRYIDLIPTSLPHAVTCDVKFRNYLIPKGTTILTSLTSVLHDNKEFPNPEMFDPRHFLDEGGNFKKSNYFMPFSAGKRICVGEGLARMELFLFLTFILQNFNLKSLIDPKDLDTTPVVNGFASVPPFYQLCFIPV
Sequence of CYP2D6 (P10635 whole entry): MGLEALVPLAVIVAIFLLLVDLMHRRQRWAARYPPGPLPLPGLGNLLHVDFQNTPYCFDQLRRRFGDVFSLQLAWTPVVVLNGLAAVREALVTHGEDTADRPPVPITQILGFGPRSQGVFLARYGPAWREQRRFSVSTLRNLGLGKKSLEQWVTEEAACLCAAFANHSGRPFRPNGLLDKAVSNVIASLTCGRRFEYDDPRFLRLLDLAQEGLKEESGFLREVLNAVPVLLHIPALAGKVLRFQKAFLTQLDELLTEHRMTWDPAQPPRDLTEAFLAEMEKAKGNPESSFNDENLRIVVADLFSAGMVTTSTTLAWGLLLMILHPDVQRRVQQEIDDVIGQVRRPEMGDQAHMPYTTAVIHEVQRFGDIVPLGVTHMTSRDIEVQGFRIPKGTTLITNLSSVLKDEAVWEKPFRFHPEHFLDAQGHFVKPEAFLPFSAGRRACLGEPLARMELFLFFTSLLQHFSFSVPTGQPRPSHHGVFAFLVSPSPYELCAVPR
Sequence of δ-secretase (Mus musculus, UniProt O89017) (O89017 18-435): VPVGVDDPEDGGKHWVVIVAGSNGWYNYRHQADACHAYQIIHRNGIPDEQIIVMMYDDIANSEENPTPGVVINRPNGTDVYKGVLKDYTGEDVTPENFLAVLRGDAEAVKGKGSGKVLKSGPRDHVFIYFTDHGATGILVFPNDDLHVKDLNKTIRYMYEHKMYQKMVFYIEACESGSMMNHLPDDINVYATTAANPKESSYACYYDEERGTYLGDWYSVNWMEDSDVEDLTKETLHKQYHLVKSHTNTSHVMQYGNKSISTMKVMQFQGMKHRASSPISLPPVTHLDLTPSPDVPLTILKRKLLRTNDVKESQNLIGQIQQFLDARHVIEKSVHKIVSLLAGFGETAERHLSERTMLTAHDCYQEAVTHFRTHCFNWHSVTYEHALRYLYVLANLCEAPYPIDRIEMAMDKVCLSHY

IC50 [1]: 3.79 ± 0.29 µM
IC50 [3]: 7860 ± 5670 nM
IC50 towards δ-secretase in Pala cells [3]: slightly larger IC50 values
IC50 [4]: > 200 µM
IC50 [5]: > 200 µM
IC50 [6, 22]: 710 ± 50 nM
IC50 [7]: 44.6 ± 5.01 µM
SMILES: N#CSc1cnc(N)s1 [compound 10]
recovery of δ-secretase activity on addition of reducing agents [2]: regained a substantial amount of activity

A->B Papp [8]: < LLOQ
B->A Papp [8]: < LLOQ
inhibition at 10 min, 3 µM [9]: 31.6%
inhibition at 10 min, 10 µM [9]: 20.4%
selectivity for δ-secretase compared to cathepsin-L [1]: over 40 fold
IC50 [1]: > 100 µM
inhibition at 10 min, 3 µM [10]: 34.6%
inhibition at 10 min, 10 µM [10]: 58.3%
inhibition at 10 min, 3 µM [11]: 23.7%
inhibition at 10 min, 10 µM [11]: 22.2%
inhibition at 10 min, 3 µM [12]: 1.5%
inhibition at 10 min, 10 µM [12]: -0.1%
IC50 [3]: 290 ± 210 nM
selectivity for δ-secretase compared to cathepsin-S [4]: over 40 fold
IC50 [4]: > 100 µM
inhibition at 10 min, 3 µM [13]: 4.6%
inhibition at 10 min, 10 µM [13]: 7.9%
selectivity for δ-secretase compared to caspase-8 [5]: over 40 fold
IC50 [5]: > 100 µM
IC50 [6, 22]: 2370 nM
inhibition at 10 min, 3 µM [14]: 0.6%
inhibition at 10 min, 10 µM [14]: 10.1%
selectivity for δ-secretase compared to caspase-3 [7]: about 6 fold
IC50 [7]: 15.4 ± 7.04 µM
SMILES: CCN(CC)c1ccc(CN2CCc3nc(C)[nH]c(=O)c3C2)c(OC)c1 [compound 64]

IC50 [1]: > 100 µM
IC50 [4]: > 100 µM
IC50 [5]: > 100 µM
IC50 [6, 22]: 210 ± 10 nM
IC50 [7]: > 100 µM
SMILES: CN(C)c1ccc(N2C(=O)C=CC2=O)cc1 [compound 22]
genotoxicity (COMET and micronucleus assay) [15]: show genotoxicity

Papp A→B at 2 h, 10 µM [16]: 0.8 ×10⁻⁶ cm/s
SMILES: CNC(=C[N+](=O)[O-])NCCSCc1ccc(CN(C)C)o1 [Ranitidine, reference compound]

GAPDH inhibition ([19]; 2 μM): robustly blocked GAPDH
GAPDH inhibition ([19]; 50 μM): robustly blocked GAPDH
SMILES: CC(C)[C@H]1CC[C@@]2(CO2)[C@H]2C(=O)OCC(C(=O)O)=C[C@H]12 [KA, koningic acid, reference compound]
neuronal injury (LDH in medium) induced by OGD [17]: neither compound 11d15 nor KA showed any neuroprotective effect
cleavage of tau and APP by δ-secretase in vitro [18]: did not affect the cleavage of tau and APP

Papp A→B at 2 h, 10 µM [16]: 28.5 ×10⁻⁶ cm/s
Papp B→A at 2 h, 10 µM [16]: 12.6 ×10⁻⁶ cm/s
Mean Remaining Parent (NADPH-free) [20]: 104%
Mean Remaining Parent (with NADPH) [20]: 96%
Mean Remaining Parent (NADPH-free) [21]: 100%
Mean Remaining Parent (with NADPH) [21]: 91%
SMILES: CC(=O)CC(c1ccccc1)c1c(O)c2ccccc2oc1=O (centres unmarked) [Warfarin, reference compound]

IC50 [1]: 5.66 ± 0.36 µM
IC50 [3]: 1570 ± 140 nM
IC50 towards δ-secretase in Pala cells [3]: slightly larger IC50 values
IC50 [4]: > 200 µM
IC50 [5]: 28.7 ± 11.2 µM
ligand efficiency [6]: 0.75
IC50 ([6]; purified active δ-secretase, read-out: IC50 / potency toward δ-secretase): ~130 nM
IC50 [6, 22]: 130 ± 90 nM
IC50 [7]: > 200 µM
SMILES: Sc1nnc(Nc2ccccc2)s1 [compound BB1]
recovery of δ-secretase activity on addition of reducing agents [2]: regained a substantial amount of activity
